# Experimental data as given in patent publication US20260327243A1, “SPIRO-HETEROCYCLIC INHIBITORS OF KRAS G12C MUTANT PROTEINS AND USES THEREOF” (AMGEN INC., priority 2023, published 2026).
# Tests used:
# [1] = biological target: KRAS^G12C (Homo sapiens, UniProt P01116, C118A/G12C); experiment: Coupled Nucleotide Exchange Assay; assay type: biochemical; conditions: GDP-bound KRAS (aa 1-169) G12C/C118A; 2 h compound pre-incubation; SOS-mediated exchange, 30 min; cRAF binding (AlphaLISA)
# Procedure, shortened: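 GDP-bound His-tagged KRAS aa 1-169 (G12C/C118A) pre-incubated 2 h with compound in 25 mM HEPES pH 7.4, 10 mM MgCl2, 0.01% Triton X-100 (±0.1% BSA), then SOS (aa 564-1049) plus GTP added for 30 min. GST-cRAF RBD binding read by AlphaLISA; DMSO-normalized, 4-parameter fit gives IC50.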
# [2] = system: MIA PaCa-2 cells; experiment: Cell Viability Assay, MIA PaCa-2; assay type: cell-based; conditions: Homo sapiens, MIA PaCa-2, 72 h, human pancreatic carcinoma, CellTiter-Glo
# Procedure: (§1) MIA PaCa-2 (human pancreatic carcinoma; ATCC CRL-1420) or A549 (human lung carcinoma; ATCC CCL-185) cells were cultured in RPMI 1640 medium containing 10% fetal bovine serum and 1×penicillin/streptomycin/L-glutamine. Cells were seeded in 384-well plates at a density of 1.67E+04 cells/mL and incubated at 37° C., 5% CO2, overnight. Serially-diluted compound or DMSO was added to the cells, and plates were incubated at 37° C., 5% CO2 for 72 h. Cell viability was measured using a CellTiter-Glo® Luminescent Cell Viability Assay kit (Promega) according to the manufacturer's protocol. The luminescence signal of treated samples was normalized to DMSO control, and data were analyzed using a 4-parameter logistic model to calculate IC50 values.
# (§2) The following data (Table 3) categorizes the IC50 of each compound for inhibiting enzymatic activity of KRAS^G12C in the indicated cells.
# [3] = system: A549 cells; experiment: Cell Viability Assay, A549; assay type: cell-based; conditions: A549; human lung carcinoma; 72 h; CellTiter-Glo
# Procedure: as §1, §2
# Chain of KRAS^G12C (P01116 1-169 isoform P01116-2 G12C/C118A): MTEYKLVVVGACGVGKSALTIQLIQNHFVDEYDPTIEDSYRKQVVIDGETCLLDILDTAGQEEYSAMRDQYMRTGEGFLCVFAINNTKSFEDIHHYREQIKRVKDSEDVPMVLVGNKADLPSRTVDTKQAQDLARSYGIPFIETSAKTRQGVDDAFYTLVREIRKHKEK
SMILES,IC50 [1],IC50 [2],IC50 [3]
C=CC(=O)N1CCN(C2CN(c3cc(N4CCC5(CC4)OCc4cnccc45)nc(C(F)(F)F)c3C#N)C2)CC1 [Compound 3-043],1590 nM,1290 nM,> 5000 nM
"C=CC(=O)N1CCN([C@@H]2CN(c3cc(N4CCC5(CC4)OCC=C5C)nc(C(F)(F)F)n3)[C@@H]2C)CC1 [Compound 3-061, 1-(4-((2R,3R)-2-Methyl-1-(6-(4-methyl-1-oxa-8-azaspiro[4.5]dec-3-en-8-yl)-2-(trifluoromethyl)pyrimidin-4-yl)azetidin-3-yl)piperazin-1-yl)prop-2-en-1-one]",184 nM,936 nM,> 5000 nM
"C=CC(=O)N1CCN([C@@H]2CN(c3cc(N4CCC5(CC4)OCC=C5C)nc(C(F)(F)F)c3C#N)[C@@H]2C)CC1 [Compound 3-052, 4-((2R,3R)-3-(4-Acryloylpiperazin-1-yl)-2-methylazetidin-1-yl)-6-(4-methyl-1-oxa-8-azaspiro[4.5]dec-3-en-8-yl)-2-(trifluoromethyl)nicotinonitrile]",161 nM,254 nM,4550 nM
"C=CC(=O)N1CCN(C2CN(c3cc(N4CCC5(CC4)OCC=C5C)nc(C(F)(F)F)c3C#N)C2)CC1 [Compound 3-051, 4-(3-(4-Acryloylpiperazin-1-yl)azetidin-1-yl)-6-(4-methyl-1-oxa-8-azaspiro[4.5]dec-3-en-8-yl)-2-(trifluoromethyl)nicotinonitrile]",102 nM,284 nM,> 5000 nM
C=CC(=O)N1CCN([C@@H]2CN(c3cc(N4CCC5(CC4)OC[C@H](COC)n4ncc(C)c45)nc(C(F)(F)F)n3)[C@@H]2C)CC1 [Compound 3-098],131 nM,224 nM,> 5000 nM
"C=CC(=O)N1CCN(C2CN(c3cc(N4CCC5(CC4)OCc4ccccc45)nc(C(F)(F)F)c3C#N)C2)CC1 [Compound 3-028, 4-(3-(4-acryloylpiperazin-1-yl)azetidin-1-yl)-6-(3H-spiro[isobenzofuran-1,4′-piperidin]-1′-yl)-2-(trifluoromethyl)nicotinonitrile]",1790 nM,1340 nM,> 3330 nM
"C=CC(=O)N1CCN(C2CN(c3cc(N4CCC5(CC4)OCc4ncsc45)nc(C(F)(F)F)c3C#N)C2)CC1 [Compound 3-046, 4-(3-(4-Acryloylpiperazin-1-yl)azetidin-1-yl)-6-(4H-spiro[furo[3,4-d]thiazole-6,4′-piperidin]-1′-yl)-2-(trifluoromethyl)nicotinonitrile]",253 nM,1140 nM,> 5000 nM
C=CC(=O)N1CCN(C2CN(c3cc(N4CCC5(CC4)COc4ccccc45)nc(C(F)(F)F)c3C#N)C2)CC1 [Compound 3-015],669 nM,2760 nM,> 5000 nM
"C=CC(=O)N1CCN([C@@H]2CN(c3cc(N4CCC5(C[C@H]4C)OCC=C5C)nc(C(F)F)n3)[C@@H]2C)CC1 (stereo partly drawn) [Compound 3-003, 1-(4-((2R,3R)-1-(2-(Difluoromethyl)-6-((7R)-4,7-dimethyl-1-oxa-8-azaspiro[4.5]dec-3-en-8-yl)pyrimidin-4-yl)-2-methylazetidin-3-yl)piperazin-1-yl) prop-2-en-1-one]",512 nM,832 nM,> 5000 nM
"C=CC(=O)N1CCN([C@@H]2CN(c3cc(N4CCC5(CC4)OCCc4ncsc45)nc(C(F)(F)F)n3)[C@@H]2C)CC1 [Compound 3-002, 1-(4-((2R,3R)-1-(6-(6′,7′-Dihydrospiro[piperidine-4,4′-pyrano[4,3-d]thiazol]-1-yl)-2-(trifluoromethyl)pyrimidin-4-yl)-2-methylazetidin-3-yl)piperazin-1-yl)prop-2-en-1-one]",315 nM,625 nM,> 5000 nM

# The next compounds have a lower IC50 [1] than those just listed; values first:
IC50 [1],IC50 [2],IC50 [3],SMILES
40 nM,155 nM,> 5000 nM,"C=CC(=O)N1CCN([C@@H]2CN(c3cc(N4CCC5(CC4)OC[C@@H](C)n4ncc(C)c45)nc(C(F)(F)F)n3)[C@@H]2C)CC1 [Compound 3-100, 1-(4-((2R,3R)-1-(6-((7′R)-3′,7′-dimethyl-6′,7′-dihydro-1H-spiro[piperidine-4,4′-pyrazolo[5,1-c][1,4]oxazin]-1-yl)-2-(trifluoromethyl)-4-pyrimidinyl)-2-methyl-3-azetidinyl)-1-piperazinyl)-2-propen-1-one]"
63 nM,131 nM,> 5000 nM,"C=CC(=O)N1CCN([C@@H]2CN(c3cc(N4CCC5(CC4)OCC(CO)n4ncc(C)c45)nc(C(F)(F)F)n3)[C@@H]2C)CC1 (stereo partly drawn) [Compound 3-081, 1-(4-((2R,3R)-1-(6-(7′-(hydroxymethyl)-3′-methyl-6′,7′-dihydrospiro[piperidine-4,4′-pyrazolo[5,1-c][1.4]oxazin]-1-yl)-2-(trifluoromethyl)pyrimidin-4-yl)-2-methylazetidin-3-yl)piperazin-1-yl)prop-2-en-1-one]"
75 nM,171 nM,> 5000 nM,"C=CC(=O)N1CCN([C@@H]2CN(c3cc(N4CCC5(CC4)OCC(CF)n4ncc(C)c45)nc(C(F)(F)F)n3)[C@@H]2C)CC1 (stereo partly drawn) [Compound 3-083, 1-(4-((2R,3R)-1-(6-(7′-(fluoromethyl)-3′-methyl-6′,7′-dihydrospiro[piperidine-4,4′-pyrazolo[5,1-c][1,4]oxazin]-1-yl)-2-(trifluoromethyl)pyrimidin-4-yl)-2-methylazetidin-3-yl)piperazin-1-yl)prop-2-en-1-one]"
41 nM,165 nM,> 5000 nM,"C=CC(=O)N1CCN([C@@H]2CN(c3cc(N4CCC5(CC4)C(=O)C4(COC4)c4nccc(C)c45)nc(C(F)(F)F)n3)[C@@H]2C)CC1 [Compound 3-099, 4′-methyl-1″-(6-((2R,3R)-2-methyl-3-(4-(2-propenoyl)-1-piperazinyl)-1-azetidinyl)-2-(trifluoromethyl)-4-pyrimidinyl)dispiro[oxetane-3,7′-cyclopenta[b]pyridine-5′,4″-piperidin]-6′-one]"
23 nM,77 nM,> 5000 nM,"C=CC(=O)N1CCN([C@@H]2CN(c3cc(N4CCC5(CC4)OC4(COC4)c4nccc(C)c45)nc(C(F)(F)F)n3)[C@@H]2C)CC1 [Compound 3-102, 1-(4-((2R,3R)-2-methyl-1-(6-(4′-methyl-1″H-dispiro[oxetane-3,7′-furo[3,4-b]pyridine-5′.4″-piperidin]-1″- yl)-2-(trifluoromethyl)-4-pyrimidinyl)-3-azetidinyl)-1-piperazinyl)-2-propen-1-one]"
52 nM,175 nM,> 5000 nM,"C=CC(=O)N1CCN([C@@H]2CN(c3cc(N4CCC5(CC4)OCCc4nccc(C)c45)nc(C(F)(F)F)n3)[C@@H]2C)CC1 [Compound 3-094, 1-(4-((2R,3R)-2-methyl-1-(6-(4′-methyl-7′,8′-dihydro-1H-spiro[piperidine-4,5′-pyrano[4.3-b]pyridin]-1-yl)-2-(trifluoromethyl)-4-pyrimidinyl)-3-azetidinyl)-1-piperazinyl)-2-propen-1-one]"
31 nM,159 nM,> 5000 nM,C=CC(=O)N1CCN([C@@H]2CN(c3cc(N4CCC5(CC4)OC(C)(C)c4nccc(C)c45)nc(C(F)(F)F)n3)[C@@H]2C)CC1 [Compound 3-095]
